Measured values published in BindingDB's records for patent US20260055102 (Redx Pharma, 2026).

Tests used:
[1] = molecular target: T1, Discoidin domain-containing receptor 2 (Homo sapiens, UniProt Q16832); test: DDR1 and DDR2 Biochemical Assay
T1 sequence (Q16832 whole entry): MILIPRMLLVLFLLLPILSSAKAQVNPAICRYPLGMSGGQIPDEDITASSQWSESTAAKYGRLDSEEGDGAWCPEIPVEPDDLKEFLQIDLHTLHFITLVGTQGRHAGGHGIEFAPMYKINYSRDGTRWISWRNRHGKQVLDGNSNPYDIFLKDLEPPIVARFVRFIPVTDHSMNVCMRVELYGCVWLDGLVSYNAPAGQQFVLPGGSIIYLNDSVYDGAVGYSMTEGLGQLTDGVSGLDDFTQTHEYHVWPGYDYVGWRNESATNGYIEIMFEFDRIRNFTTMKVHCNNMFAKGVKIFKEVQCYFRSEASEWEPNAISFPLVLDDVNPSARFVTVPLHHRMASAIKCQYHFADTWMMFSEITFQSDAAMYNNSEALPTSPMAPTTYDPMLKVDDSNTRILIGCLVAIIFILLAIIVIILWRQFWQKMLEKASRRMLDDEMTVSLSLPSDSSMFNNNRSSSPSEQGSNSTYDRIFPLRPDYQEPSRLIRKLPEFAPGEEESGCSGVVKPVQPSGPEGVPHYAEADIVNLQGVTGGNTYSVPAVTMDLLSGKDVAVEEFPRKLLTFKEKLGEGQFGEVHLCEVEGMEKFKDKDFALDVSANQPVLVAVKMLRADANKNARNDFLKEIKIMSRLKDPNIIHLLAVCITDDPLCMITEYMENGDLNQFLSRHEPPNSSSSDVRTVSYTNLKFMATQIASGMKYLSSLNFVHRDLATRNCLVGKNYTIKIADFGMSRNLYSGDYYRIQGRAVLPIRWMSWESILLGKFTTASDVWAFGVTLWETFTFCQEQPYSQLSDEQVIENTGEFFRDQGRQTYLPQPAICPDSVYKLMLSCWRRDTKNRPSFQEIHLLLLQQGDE
Experimental: (§1) The capacity of compounds to bind to DDR1 and DDR2 was quantified using a LanthaScreen Eu Kinase Binding Assay. Recombinant human DDR1 (2.5 nM; aa440-876 containing a GST tag) and DDR2 (1.75 nM; aa427-855 containing a GST tag) were diluted in assay buffer (50 mM HEPES pH7.3, 10 mM MgCl2, 1 mM EGTA and 0.01% Tween) with various concentrations of compound in a 384-well plate and a volume of 5 uL. After a 30-minute incubation at room temperature, 2.5 uL of Eu-anti GST antibody (diluted to 1 nM in assay buffer) plus Kinase Tracer 178 (diluted in assay buffer to 5 nM for DDR1 and 10 nM for DDR2) were added to the plate. Following 60-minute incubation at room temperature, time-resolved fluorescence was measured on a BMG Labtech PHERAstar plate reader. DMSO (1%) and reference compound (1 μM) were used to generate the Max and Min assay signals, respectively. Data was analysed using a four-parameter logistic model to calculate IC50 values, with at least two independent replicates were performed for each compound.

[2] = molecular target: Epithelial discoidin domain-containing receptor 1 (Homo sapiens, UniProt Q08345); test: DDR1 and DDR2 Biochemical Assay
Chain of Epithelial discoidin domain-containing receptor 1 (Q08345 whole entry, the tested form may be a part): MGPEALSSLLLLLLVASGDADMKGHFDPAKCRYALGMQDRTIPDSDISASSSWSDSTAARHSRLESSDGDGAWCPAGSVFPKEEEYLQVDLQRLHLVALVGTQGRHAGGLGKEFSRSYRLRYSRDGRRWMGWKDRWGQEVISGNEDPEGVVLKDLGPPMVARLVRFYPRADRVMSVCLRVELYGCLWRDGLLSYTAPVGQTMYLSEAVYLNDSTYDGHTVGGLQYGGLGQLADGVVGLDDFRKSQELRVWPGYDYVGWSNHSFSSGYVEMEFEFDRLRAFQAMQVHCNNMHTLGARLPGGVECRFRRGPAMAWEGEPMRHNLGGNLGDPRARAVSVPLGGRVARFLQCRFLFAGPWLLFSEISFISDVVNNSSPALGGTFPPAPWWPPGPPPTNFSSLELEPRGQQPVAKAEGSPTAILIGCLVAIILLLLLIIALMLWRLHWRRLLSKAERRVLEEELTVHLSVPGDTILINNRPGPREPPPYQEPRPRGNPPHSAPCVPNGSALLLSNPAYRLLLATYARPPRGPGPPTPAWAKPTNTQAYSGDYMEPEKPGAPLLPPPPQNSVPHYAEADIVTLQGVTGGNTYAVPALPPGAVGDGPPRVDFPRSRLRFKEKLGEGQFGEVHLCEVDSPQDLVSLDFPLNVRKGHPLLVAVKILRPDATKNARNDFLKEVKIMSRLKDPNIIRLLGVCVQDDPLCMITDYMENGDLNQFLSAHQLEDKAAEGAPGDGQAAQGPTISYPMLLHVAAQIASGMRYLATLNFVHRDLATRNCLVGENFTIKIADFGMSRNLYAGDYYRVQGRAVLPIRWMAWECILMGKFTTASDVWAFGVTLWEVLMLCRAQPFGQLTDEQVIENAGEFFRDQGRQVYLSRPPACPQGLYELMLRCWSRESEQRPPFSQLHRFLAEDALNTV
Experimental: as §1

IC50 [1] [nM]	IC50 [2] [nM]	SMILES
> 1000	–	Cc1cccc2c1n(-c1ccc(-c3cncc4c3cnn4C)cc1)c(=O)n2CC(=O)N1CCC[C@H]1CF [US20260055102, Example 26]
–	< 10	Cc1cccc2c1n(-c1ccc(-c3cncc4c3cnn4C)cn1)c(=O)n2CC(=O)N1CCO[C@H](C(F)(F)F)C1 [US20260055102, Example 61]
> 1000	–	CN(C)c1cccc2c1n(-c1ccc(-c3cncc4c3cnn4C)cc1)c(=O)n2CC(=O)NCC(F)(F)F [US20260055102, Example 80]
> 1000	> 1000	Cc1nc(-n2c(=O)n(CC(=O)NCC(F)(F)F)c3cccc(C)c32)cnc1-c1cncc2c1cnn2C [US20260055102, Example 100]
